Test results published in US10000452B1, “Quinolone-based compounds, formulations, and uses thereof” (University of South Florida, priority 2016, dated 2018).
In brackets after ≈: the same amount, converted by molar mass. Read-outs that look alike come from different tables or passages of the source.

Experiments:
[1] = test system: malarial strain W2 (pyrimethamine and chloroquine-resistant); test: in vitro antimalarial activity against multidrug resistant strain W2; assay type: cell-based, P. falciparum; conditions: Plasmodium falciparum
[2] = test system: P. berghei sporozoites expressing luciferase; test: in vitro liver stage activity, luciferase sporozoites infecting HEPG2 hepatoma cells; assay type: cell-based; conditions: Plasmodium berghei, HEPG2 cells
J774 mammalian cells = test: cytotoxicity to J774 cells; assay type: cell-based; conditions: Mus musculus, J774, read-out: EC50 J774 (μM)
Experimental: This allowed a simplified method for comparing the different assays being simultaneously run. Additionally, each compound was also tested for cytotoxicity using mammalian J774 cell lines in a 96-well plate format.^12-14, 16

[3] = aqueous solubility (LC/MS- or HPLC-based assay); assay type: physicochemical
Excerpt: (§1) Furthermore, to profile the properties of the piperazinyl-4(1H)-quinolones, and to identify potential limitations, aqueous solubility and lipophilicity log D were experimentally determined via LC/MS-based assays as described by the Manetsch laboratory previously^8,10,31,32 (Tables 9-12). Encouragingly, the piperazinyl-4(1H)-quinolones were much more soluble than the previously described phenoxyethoxy-4(1H)-quinolone analogues.^19 As expected, the solubility of all compounds was affected by pH, with better solubility under more acidic conditions.
(§2) In parallel to testing the compounds for in vitro antimalarial activity, a limited structure-property relationship (SPR) study focusing on log D and aqueous solubility was conducted to assess potential physiochemical liabilities (FIG. 22). […] For these reasons, physicochemical properties were not strongly considered as selection criteria for in vivo efficacy studies.

[4] = lipophilicity log D at pH 7.4; assay type: physicochemical; conditions: octanol/water
Excerpt: as §1, §2

Pb-infected mice = test: in vivo efficacy scouting assay against blood stages; design: species or system P. berghei; mice; conditions: for activities in these scout assays: result in words; for inhibition in vivo at 50 mg/kg: Plasmodium berghei, 144 h, read-out: % Inhibition Day 6 PI
Experimental: The screening involved a single oral 50 mg/kg dose 1 day post infection (PI) and an assessment of parasitemia on days 3 PI and 6 PI (Table 6).
The screening was performed by treating two infected mice with a single 50 mg/kg oral dose of test compound suspended in PEG400 on day 1 postexposure (PE) followed by assessing parasitemia on days 3 and 6 PE.

[5] = test system: malarial strain TM90-C2B (mefloquine, chloroquine, atovaquone, and pyrimethamine-resistant); test: microbe, parasite or virus in culture; assay type: cell-based, P. falciparum; conditions: for EC50: Plasmodium falciparum, TM90, read-out: EC50 TM90-C2B (nM); for RI: RI = EC50 TM90-C2B/EC50 W2
Excerpt: Ideally, the RI of a compound should lie between 0.3 and 3.0 in order to avoid rapidly inducing resistance in the parasite. […]

[6] = aqueous medium, pH 2, simulated gastric fluid, pH 2.0, read-out: Solubility pH 2.0
[7] = single oral 50 mg/kg dose 1 day PI, vs untreated animals
[8] = aqueous solution, pH 2, simulated gastric fluid, pH 2.0, read-out: Solubility pH 2.0
[9] = aqueous solution, pH 6.5, aqueous buffer, pH 6.5, read-out: Solubility pH 6.5
[10] = single oral 50 mg/kg dose 1 day PI
[11] = aqueous medium, pH 6.5, aqueous buffer, pH 6.5, read-out: Solubility pH 6.5

Row | Compound | EC50 ([1]; read-out: EC50 W2 (nM)) | EC50 [2] | EC50 (J774 mammalian cells) | solubility [3, 6] | chromatographic logD [4] | % Inhibition Day 6 PI (Pb-infected mice; [7]) | EC50 [5] | solubility [3, 8] | solubility [3, 9] | activities in these scout assays (Pb-infected mice; [10]) | RI [5] | solubility ([3]; aqueous solution (buffer not named), pH 2, simulated gastric fluid, pH 2.0, read-out: Solubility pH 2.0) | solubility ([3]; aqueous solution (buffer not named), pH 6.5, aqueous buffer, pH 6.5, read-out: Solubility pH 6.5) | solubility [3, 11] | Solubility pH 2.0 (μM) ([3]; pH 2.0) | Solubility pH 6.5 (μM) ([3]; pH 6.5) | inhibition in vivo at 50 mg/kg (Pb-infected mice; [7]) | inhibition in vivo at 50 mg/kg (Pb-infected mice; po) | % Inhibition Day 3 PI (Pb-infected mice; [7]) | EC50 ([1]; read-out: EC50 W2)
1 | COC(=O)c1c[nH]c2cc(N3CCN(c4ccccc4)CC3)ccc2c1=O [Compound 8a, Methyl 4-oxo-7-(4-phenylpiperazin-1-yl)-1,4-dihydroquinoline-3-carboxylate] | 4.45 nM | 74.1 nM | > 20 µM | 1 to 19.9 µM (≈ 0.363 to 7.23 µg/mL) | 2.58 | little to moderate protection |  |  |  |  |  |  |  |  |  |  |  |  |  | 
2 | COC(=O)c1c[nH]c2cc(CN3CCN(c4ccc(F)cc4)CC3)c(OC)cc2c1=O [Compound 8aa, Methyl 7-((4-(4-fluorophenyl)piperazin-1-yl)methyl)-6-methoxy-4-oxo-1,4-dihydroquinoline-3-carboxylate] | 1.79 nM | 32.3 nM | > 20 µM |  | 1.31 | 56.9% | 218 nM | 60 to 79.9 µM (≈ 25.5 to 34 µg/mL) | ≥ 80 µM | excellent activities |  |  |  |  |  |  |  |  |  | 
3 | COC(=O)c1c[nH]c2ccc(CN3CCN(c4ccc(OC)cc4)CC3)cc2c1=O [Compound 8ag, Methyl 6-((4-(4-methoxyphenyl)piperazin-1-yl)methyl)-4-oxo-1,4-dihydroquinoline-3-carboxylate] | 164 nM | > 100 nM | > 20 µM |  | 1.91 | little to moderate protection | 2900 nM |  |  |  | 17.7 | ≥ 80 µM | 20 to 39.9 µM (≈ 8.15 to 16.3 µg/mL) |  |  |  |  |  |  | 
4 | COC(=O)c1c[nH]c2cc(N3CCN(Cc4ccccc4)CC3)ccc2c1=O [Compound 8b, Methyl 7-(4-benzylpiperazin-1-yl)-4-oxo-1,4-dihydroquinoline-3-carboxylate] | 16.2 nM | 84.5 nM | > 20 µM | 60 to 80 µM (≈ 22.6 to 30.2 µg/mL) | 2.21 |  |  |  |  |  |  |  |  | 60 to 80 µM (≈ 22.6 to 30.2 µg/mL) | 60-79.9 μM | 60-79.9 μM | ~40% |  |  | 
5 | COC(=O)c1c[nH]c2cc(N3CCN(Cc4ccccc4)CC3)c(C)cc2c1=O [Compound 8g, Methyl 7-(4-benzylpiperazin-1-yl)-6-methyl-4-oxo-1,4-dihydroquinoline-3-carboxylate] | 13.2 nM | > 100 nM | > 20 µM | ≥ 80 µM | 2.37 |  | 982 nM |  |  |  | 74.4 |  |  | ≥ 80 µM |  |  |  |  |  | 
6 | COC(=O)c1c[nH]c2cc(CN3CCN(Cc4ccccc4)CC3)ccc2c1=O [Compound 8k, Methyl 7-((4-benzylpiperazin-1-yl)methyl)-4-oxo-1,4-dihydroquinoline-3-carboxylate] | 1.41 nM | 43.7 nM | 10.4 µM | ≥ 80 µM | 2.06 | little to moderate protection | 153 nM |  |  |  |  |  |  | ≥ 80 µM |  |  |  |  |  | 
7 | COC(=O)c1c[nH]c2cc(CN3CCN(c4ccc(F)cc4)CC3)ccc2c1=O [Compound 8o, Methyl 7-((4-(4-fluorophenyl)piperazin-1-yl)methyl)-4-oxo-1,4-dihydroquinoline-3-carboxylate] | 1.75 nM | 1.06 nM | 2 µM |  | 2.38 |  | 131 nM | ≥ 80 µM | ≥ 80 µM | excellent activities | 74.9 |  |  |  |  |  |  | > 85% | full inhibition | 
8 | COC(=O)c1c[nH]c2cc(CN3CCN(c4ccc(C(F)(F)F)cc4)CC3)ccc2c1=O [Compound 8p, Methyl 4-oxo-7-((4-(4-(trifluoromethyl)phenyl)piperazin-1-yl)methyl)-1,4-dihydroquinoline-3-carboxylate] | 0.315 nM | 15.6 nM | 10.7 µM |  | 3.23 | completely inhibited parasite growth | 122 nM | ≥ 80 µM | 1 to 19.9 µM (≈ 0.445 to 8.86 µg/mL) | excellent activities | 387 |  |  |  |  |  |  | > 85% | full inhibition | 
9 | COC(=O)c1c[nH]c2cc(CN3CCN(c4ccccc4)CC3)c(C)cc2c1=O [Compound 8q, Methyl 6-methyl-4-oxo-7-((4-phenylpiperazin-1-yl)methyl)-1,4-dihydroquinoline-3-carboxylate] | 0.435 nM | 6.92 nM | 11.9 µM | ≥ 80 µM | 2.81 | little to moderate protection | 147 nM |  |  |  | 338 |  |  | 60 to 79.9 µM (≈ 23.5 to 31.3 µg/mL) |  |  |  |  |  | 
10 | COC(=O)c1c[nH]c2cc(CN3CCN(Cc4ccccc4)CC3)c(C)cc2c1=O [Compound 8r, Methyl 7-((4-benzylpiperazin-1-yl)methyl)-6-methyl-4-oxo-1,4-dihydroquinoline-3-carboxylate] | 1.45 nM | 9.46 nM | > 20 µM | ≥ 80 µM | 1.94 | little to moderate protection | 890 nM |  |  |  |  |  |  | ≥ 80 µM |  |  |  |  |  | 
11 | COC(=O)c1c[nH]c2cc(CN3CCN(c4ccc(OC)cc4)CC3)c(C)cc2c1=O [Compound 8t, Methyl 7-((4-(4-methoxyphenyl)piperazin-1-yl)methyl)-6-methyl-4-oxo-1,4-dihydroquinoline-3-carboxylate] | 0.575 nM | 4.11 nM | > 20 µM |  | 2.61 |  | 177 nM | ≥ 80 µM | 20 to 39.9 µM (≈ 8.43 to 16.8 µg/mL) |  | 308 |  |  |  |  |  |  |  |  | 
12 | COC(=O)c1c[nH]c2cc(CN3CCN(c4ccc(F)cc4)CC3)c(C)cc2c1=O [Compound 8u, Methyl 7-((4-(4-fluorophenyl)piperazin-1-yl)methyl)-6-methyl-4-oxo-1,4-dihydroquinoline-3-carboxylate] | 0.843 nM | 2.64 nM | 15.7 µM |  | 2.9 |  | 348 nM | ≥ 80 µM | 40 to 59.9 µM (≈ 16.4 to 24.5 µg/mL) |  |  |  |  |  |  |  |  |  |  | 0.843 nM
13 | COC(=O)c1c[nH]c2cc(CN3CCN(c4ccccc4)CC3)c(OC)cc2c1=O [Compound 8w, Methyl 6-methoxy-4-oxo-7-((4-phenylpiperazin-1-yl)methyl)-1,4-dihydroquinoline-3-carboxylate] | 1.62 nM | 113 nM | > 20 µM | ≥ 80 µM | 1.32 | 82.4% | 493 nM |  |  | excellent activities |  |  |  | ≥ 80 µM |  |  |  |  |  | 
14 | COC(=O)c1c[nH]c2cc(CN3CCN(Cc4ccccc4)CC3)c(OC)cc2c1=O [Compound 8x, Methyl 7-((4-benzylpiperazin-1-yl)methyl)-6-methoxy-4-oxo-1,4-dihydroquinoline-3-carboxylate] | 5.45 nM | 9.26 nM | > 20 µM | ≥ 80 µM | 1.28 | little to moderate protection | 2830 nM |  |  |  |  |  |  | 60 to 79.9 µM (≈ 25.3 to 33.7 µg/mL) |  |  |  |  |  | 
